From a melting point compilation (Tetko et al.; mined from patent text by program, amines drawn as free bases though some values may be those of a salt)

**Q.** Which melting point does the source give for `COc1ccc(C(=O)c2ccccc2)cc1COc1ccc(Cl)cc1` here?
**A.** 103 °C

**Q.** Which melting point does the source give for `CC(=O)NC[C@H]1CN(c2ccc(N3C[C@H]4CN(C(=O)c5cc6ccccc6[nH]5)C[C@H]4C3)c(F)c2)C(=O)O1` here?
**A.** 211 °C

**Q.** For `CCCC=Cc1c(C(C)C)nc(C(C)C)c(C(=O)OCC)c1-c1ccc(CC)cc1`, which melting point is on record?
**A.** 67 to 68 °C

**Q.** With `CC(c1oc2ccccc2c(=O)c1-c1cccc(F)c1)n1nc(-c2ccc(OC(F)(F)F)cc2)c2c(N)ncnc21` (stereo not drawn) as the compound, how does the melting point read?
**A.** 224 to 226 °C

**Q.** Which melting point does the source give for `COc1cc(C(O)CCCCCCCCCCOCc2ccccc2)ccc1OCc1ccccc1` (stereo not drawn) here?
**A.** 43 to 45 °C

**Q.** With `CC(=O)OCC1Cc2c(c3cccnc3n(-c3ccccc3)c2=O)O1` (stereo not drawn) as the compound, how does the melting point read?
**A.** 207 to 208 °C

**Q.** Which melting point does the source give for `CCCSC1(C(F)(F)F)C=NC(=O)Nc2ccc(Cl)cc21` (stereo not drawn) here?
**A.** 156 to 157 °C

**Q.** With `CCOC(=O)c1ccc(OCC2CCCCC2)c([N+](=O)[O-])c1` as the compound, how does the melting point read?
**A.** 79 to 80 °C

**Q.** With `COc1ccc(OC)c(S(=O)(=O)Nc2onc(C)c2Br)c1` as the compound, how does the melting point read?
**A.** 118 to 120 °C

**Q.** With `COc1ccc2c(c1)Sc1cc(OC)c(Cl)cc1C(O)C2` (stereo not drawn) as the compound, how does the melting point read?
**A.** 105 to 106 °C

**Q.** With `CC(C)Oc1c(C(N)=O)n(C)c2ccc(O)cc12` as the compound, how does the melting point read?
**A.** 234 to 237 °C

**Q.** Which melting point does the source give for `O=c1oc(Nc2ccc(Oc3ccccc3)cc2)nc2sccc12` here?
**A.** 206 to 210 °C

**Q.** For `CC(C)(C)c1cc(CN2CC(O)C2)cc(C(C)(C)C)c1O`, which melting point is on record?
**A.** 139 to 142 °C

**Q.** With `C=Cc1ncc2[nH]c3cccc(OCc4ccccc4)c3c2c1COC` as the compound, how does the melting point read?
**A.** 183 to 185 °C

**Q.** For `CC(=O)Oc1ccc2c(c1)CCC1C2CCC2(C)C(OC(C)=O)CCC12` (stereo not drawn), which melting point is on record?
**A.** 128 to 129 °C

**Q.** With `CC(C)(Oc1ccc(CCN)cc1)C(=O)O` as the compound, how does the melting point read?
**A.** 187 to 189 °C

**Q.** For `CCCCc1nc(SCCF)c(C(=O)OCC)n1Cc1ccc(-c2ccccc2C(=O)O)cc1`, which melting point is on record?
**A.** 79 °C

**Q.** With `COc1cc(CC(=O)Nc2nn(-c3ccccc3)cc2C=O)ccc1OCc1nc(-c2ccco2)oc1C` as the compound, how does the melting point read?
**A.** 190 to 191 °C

**Q.** With `Cc1cccc(NC(=O)C2=C(O)c3ccccc3S(=O)(=O)N2C)c(=O)c1` as the compound, how does the melting point read?
**A.** 276 to 280 °C

**Q.** For `CC(c1c(F)ccc(F)c1Cl)N1CCNc2ncc(I)cc21` (stereo not drawn), which melting point is on record?
**A.** 166 °C

**Q.** Which melting point does the source give for `CCOC(=O)Nc1c(C(=O)c2ccccc2)[nH]c2cc(Cl)ccc12` here?
**A.** 159 to 161 °C

**Q.** Which melting point does the source give for `Cc1nccc2c3ccc(OCCC(C)C)cc3n(CCC(C)C)c12` here?
**A.** 106 °C

**Q.** Which melting point does the source give for `N=C(N)c1ccc2cc(OC(=O)CC3CCCCC3)ccc2c1` here?
**A.** 203 to 205 °C

**Q.** Which melting point does the source give for `Cc1cc(C2=C(C=CC3CC(O)CC(=O)O3)C(C)(C)CC(N3C(=O)CCC3=O)C2)ccc1F` (stereo not drawn) here?
**A.** 71 to 77 °C

**Q.** With `O=C(/C=C/c1ccc(F)cc1)c1cnc2sc3c(n12)CCCCC3` as the compound, how does the melting point read?
**A.** 187 to 188 °C

**Q.** Which melting point does the source give for `O=C(c1cc([N+](=O)[O-])cc(C(F)(F)F)c1)c1cc([N+](=O)[O-])cc(C(F)(F)F)c1` here?
**A.** 181 °C

**Q.** For `FC(F)(F)Oc1ccc(-n2cc(CBr)cn2)cc1`, which melting point is on record?
**A.** 50 to 51 °C

**Q.** With `Cc1oc2nc3c(c(N)c2c1C)C(=O)CCC3` as the compound, how does the melting point read?
**A.** 190 to 198 °C

**Q.** With `CC(C)NC(=O)c1c(NC(=O)c2cc(C(F)(F)F)nn2-c2ncccc2Cl)ccc2cccnc12` as the compound, how does the melting point read?
**A.** 225 to 226 °C

**Q.** With `CCCCc1nc2cncnc2[nH]1` as the compound, how does the melting point read?
**A.** 168 °C

**Q.** For `CCC(COC)Nc1c([N+](=O)[O-])cc(C)c(C)c1[N+](=O)[O-]` (single isomer, unassigned; (-)), which melting point is on record?
**A.** 42.5 to 44 °C

**Q.** Which melting point does the source give for `COc1cc(C=Cc2cc(OC)c(OC)c(OC)c2)cc(Br)c1OC` here?
**A.** 180 to 182 °C

**Q.** Which melting point does the source give for `O=C(CN1CCN(c2nccs2)CC1)N1CCC(O)(c2cccc(C(F)(F)F)c2)CC1` here?
**A.** 157 to 158 °C

**Q.** Which melting point does the source give for `CCCOC(=O)c1cncn1C(c1ccccc1)c1ccccc1` here?
**A.** 81 °C

**Q.** Which melting point does the source give for `Oc1ccc2c(c1-c1ccccc1)CCCC=C2c1ccc(OCCCCCSc2ccc(C(F)(F)F)cc2)cc1` here?
**A.** 189 °C

**Q.** Which melting point does the source give for `Nc1ccc(Oc2ccccc2-c2ccccc2Oc2ccc(N)cc2)cc1` here?
**A.** 157 to 158 °C

**Q.** For `CCOC(=O)c1[nH]c(C)c(C(C)(C)C)c1C`, which melting point is on record?
**A.** 108 to 110 °C

**Q.** With `Nc1nc(OCC2CCCCC2)c2c(n1)=NC(=O)N=2` as the compound, how does the melting point read?
**A.** 297 °C

**Q.** For `COc1nc(N)nc(-c2ccccc2)c1-c1ccc(=O)n(C(C)C)n1`, which melting point is on record?
**A.** 230 to 233 °C

**Q.** For `Cn1c2ccccc2c2cc(C(=O)N3CCOCC3)sc21`, which melting point is on record?
**A.** 125 to 127 °C

**Q.** With `O=C1NC(c2ccccc2)C(=O)NC1c1ccccc1` (stereo not drawn) as the compound, how does the melting point read?
**A.** 282 to 284 °C

**Q.** Which melting point does the source give for `CN1C(=O)C(C)(C)N=C(c2ccccc2Cl)c2cc([N+](=O)[O-])cc(Cl)c21` here?
**A.** 254 °C

**Q.** With `CS(=O)(=O)c1ccc(-c2nn(Cc3ccc(F)cc3F)c(=O)cc2-c2ccc(Cl)cc2)cc1` as the compound, how does the melting point read?
**A.** 174 °C

**Q.** For `CCCC(=O)c1cnc2c(OC)cccc2c1Nc1ccsc1CC`, which melting point is on record?
**A.** 119 to 121 °C

**Q.** With `Cc1cc(C(=O)N2Cc3cccn3Cc3ccccc32)ccc1C1=CCCCC1` as the compound, how does the melting point read?
**A.** 173 to 175 °C

**Q.** With `COC(=O)c1ccc(CNC(=O)c2ccc(C(=O)NO)s2)cc1` as the compound, how does the melting point read?
**A.** 156 to 166 °C

**Q.** With `COc1ccc(-c2ncc(NC(=O)OCc3ccccc3)c(=O)n2CC(=O)NC(Cc2ccccc2)C(=O)C(F)(F)F)cc1` (stereo not drawn) as the compound, how does the melting point read?
**A.** 172 to 174 °C

**Q.** Which melting point does the source give for `CCCCCCCCCCCCc1nnn(C(C(=O)Nc2c(C(C)C)cccc2C(C)C)c2ccccc2)n1` (stereo not drawn) here?
**A.** 93 to 95 °C

**Q.** With `Cn1c(C(F)(F)F)nn(-c2cc(F)c(C#N)cc2Cl)c1=O` as the compound, how does the melting point read?
**A.** 105 °C

**Q.** Which melting point does the source give for `Nc1nc2ccccc2n1CCCN1CCN(C(c2ccccc2)c2ccccc2)CC1` here?
**A.** 229 °C

**Q.** With `CN=Cc1cnc(-c2ccccc2Cl)s1` as the compound, how does the melting point read?
**A.** 81 to 83 °C

**Q.** For `CC(=O)c1cccc2c1C1(COc3cc4c(cc31)OCCO4)C(=O)N2C` (stereo not drawn), which melting point is on record?
**A.** 234 to 235 °C

**Q.** For `C=C(Oc1cc(-n2c(=O)cc(C(F)(F)F)n(N)c2=O)c(F)cc1Cl)C(=O)OC`, which melting point is on record?
**A.** 66 °C

**Q.** For `O=C(Nc1cccc(S(=O)(=O)NCC(F)(F)F)c1)c1cnn2c(C(F)(F)F)cc(-c3ccc(C(F)(F)F)cc3)nc12`, which melting point is on record?
**A.** 259 °C

**Q.** Which melting point does the source give for `CN(C)C(=O)c1cn(C)c2nc3cc(F)c(F)cc3cc2c1=O` here?
**A.** 324 °C

**Q.** With `CCOC(=O)c1c(CN2CCC(C(=O)OCC)CC2)nc2sc3c(c2c1-c1ccc(OC)c(OC)c1)CCN(C(=O)c1ccc(Cl)cc1)C3` as the compound, how does the melting point read?
**A.** 99 to 101 °C

**Q.** For `COCOc1cccc2cccc(C=O)c12`, which melting point is on record?
**A.** 56 to 57 °C

**Q.** With `CC(=O)c1ccc2c(c1)CCCN2C(=O)OC(C)(C)C` as the compound, how does the melting point read?
**A.** 80 to 82 °C

**Q.** With `OCCCCn1ccc(NC(=S)Nc2ccccc2)n1` as the compound, how does the melting point read?
**A.** 112 to 117 °C

**Q.** With `COc1cc(-c2ncn(-c3cc(OC)c(OC)c(OC)c3)c2-c2cc(OC)c(OC)c(OC)c2)cc(OC)c1OC` as the compound, how does the melting point read?
**A.** 169 to 171 °C

**Q.** Which melting point does the source give for `CCOC(=O)c1c(-c2ccccc2C)c2cc(C)c(Cl)cc2n(C)c1=O` here?
**A.** 121 to 123 °C

**Q.** With `COc1cc(NC(=O)c2csc(NC(=O)NCc3ccccc3)n2)ccc1OCC(=O)O` as the compound, how does the melting point read?
**A.** 210 °C

**Q.** Which melting point does the source give for `O=C(O)COc1ccc2c(c1)-c1nc(S(=O)(=O)CC(c3ccccc3)c3ccccc3)sc1CC2` here?
**A.** 183 to 185 °C

**Q.** For `CC(C)CCS(=O)(=O)CC[C@H](O)[C@@H](N)CC(C)C`, which melting point is on record?
**A.** 125 to 126 °C

**Q.** For `CCc1cccc(C)c1CNc1nc(Br)cc(N)c1[N+](=O)[O-]`, which melting point is on record?
**A.** 126 to 128 °C

**Q.** Which melting point does the source give for `Cc1cccc(C2CC(=O)c3ccccc3O2)c1` (stereo not drawn) here?
**A.** 156 to 158 °C

**Q.** With `CCOC(=O)c1nc(N)sc1C(=O)c1ccccn1` as the compound, how does the melting point read?
**A.** 143 to 144 °C

**Q.** Which melting point does the source give for `COc1ccc(NC(=O)c2cccnc2)c2c1oc1ccccc12` here?
**A.** 200 to 203 °C
